Columns and labels:
Assay type in all cases: biochemical
[1] = target: FGFR3 (Homo sapiens (Human), UniProt P22607); assay: FGFR enzymatic assay (FRET peptide phosphorylation), FGFR3; details: FGFR3 enzyme (Millipore), ATP 140 μM
Method: (§1) The inhibitor potency of the exemplified compounds was measured in an enzyme assay that measures peptide phosphorylation using FRET measurements to detect product formation. Inhibitors were serially diluted in DMSO and a volume of 0.5 μL was transferred to the wells of a 384-well plate. For FGFR3, a 10 μL volume of FGFR3 enzyme (Millipore) diluted in assay buffer (50 mM HEPES, 10 mM MgCl2, 1 mM EGTA, 0.01% Tween-20, 5 mM DTT, pH 7.5) was added to the plate and pre-incubated for 5-10 minutes. Appropriate controls (enzyme blank and enzyme with no inhibitor) were included on the plate. […] The plate was incubated at 25° C. for 1 hr. […] The plate was allowed to equilibrate for ˜1 hr before scanning the wells on a PheraStar plate reader (BMG Labtech).
(§2) GraphPad prism3 was used to analyze the data. The IC50 values were derived by fitting the data to the equation for a sigmoidal dose-response with a variable slope. Y=Bottom+(Top−Bottom)/(1+10^((LogIC50−X)*HillSlope)) where X is the logarithm of concentration and Y is the response.

[2] = target: FGFR1 (Homo sapiens (Human), UniProt P11362); assay: FGFR enzymatic assay (FRET peptide phosphorylation), FGFR1; details: FGFR1 enzyme 0.02 nM, ATP 210 μM
FGFR1, sequence (P11362 22-822): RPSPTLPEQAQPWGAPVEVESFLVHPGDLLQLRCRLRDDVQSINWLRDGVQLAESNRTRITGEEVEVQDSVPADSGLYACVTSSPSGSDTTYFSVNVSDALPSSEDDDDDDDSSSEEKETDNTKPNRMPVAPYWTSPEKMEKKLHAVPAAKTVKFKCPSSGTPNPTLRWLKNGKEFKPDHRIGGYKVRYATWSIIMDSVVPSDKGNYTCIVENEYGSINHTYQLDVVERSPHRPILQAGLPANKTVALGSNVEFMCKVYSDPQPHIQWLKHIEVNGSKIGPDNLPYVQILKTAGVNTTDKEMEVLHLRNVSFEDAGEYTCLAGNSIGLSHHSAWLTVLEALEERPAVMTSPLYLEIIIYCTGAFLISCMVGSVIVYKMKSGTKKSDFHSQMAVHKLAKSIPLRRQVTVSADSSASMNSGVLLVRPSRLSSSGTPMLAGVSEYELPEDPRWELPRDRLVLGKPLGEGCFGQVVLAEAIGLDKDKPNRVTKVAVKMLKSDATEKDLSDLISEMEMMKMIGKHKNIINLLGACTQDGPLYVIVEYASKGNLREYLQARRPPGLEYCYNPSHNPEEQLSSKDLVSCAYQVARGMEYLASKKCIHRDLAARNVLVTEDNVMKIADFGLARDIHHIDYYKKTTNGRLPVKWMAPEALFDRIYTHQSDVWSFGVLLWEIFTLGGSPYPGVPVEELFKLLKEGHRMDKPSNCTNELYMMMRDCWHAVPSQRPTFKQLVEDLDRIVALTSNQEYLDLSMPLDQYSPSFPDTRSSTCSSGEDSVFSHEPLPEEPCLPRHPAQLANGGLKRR
Method: as §1
(§3) The enzymes were purchased from Millipore or Invitrogen.
as §2

[3] = target: FGFR2 (Homo sapiens (Human), UniProt P21802); assay: FGFR enzymatic assay (FRET peptide phosphorylation), FGFR2; details: FGFR2 enzyme 0.01 nM, ATP 100 μM
FGFR2, sequence (P21802 22-821): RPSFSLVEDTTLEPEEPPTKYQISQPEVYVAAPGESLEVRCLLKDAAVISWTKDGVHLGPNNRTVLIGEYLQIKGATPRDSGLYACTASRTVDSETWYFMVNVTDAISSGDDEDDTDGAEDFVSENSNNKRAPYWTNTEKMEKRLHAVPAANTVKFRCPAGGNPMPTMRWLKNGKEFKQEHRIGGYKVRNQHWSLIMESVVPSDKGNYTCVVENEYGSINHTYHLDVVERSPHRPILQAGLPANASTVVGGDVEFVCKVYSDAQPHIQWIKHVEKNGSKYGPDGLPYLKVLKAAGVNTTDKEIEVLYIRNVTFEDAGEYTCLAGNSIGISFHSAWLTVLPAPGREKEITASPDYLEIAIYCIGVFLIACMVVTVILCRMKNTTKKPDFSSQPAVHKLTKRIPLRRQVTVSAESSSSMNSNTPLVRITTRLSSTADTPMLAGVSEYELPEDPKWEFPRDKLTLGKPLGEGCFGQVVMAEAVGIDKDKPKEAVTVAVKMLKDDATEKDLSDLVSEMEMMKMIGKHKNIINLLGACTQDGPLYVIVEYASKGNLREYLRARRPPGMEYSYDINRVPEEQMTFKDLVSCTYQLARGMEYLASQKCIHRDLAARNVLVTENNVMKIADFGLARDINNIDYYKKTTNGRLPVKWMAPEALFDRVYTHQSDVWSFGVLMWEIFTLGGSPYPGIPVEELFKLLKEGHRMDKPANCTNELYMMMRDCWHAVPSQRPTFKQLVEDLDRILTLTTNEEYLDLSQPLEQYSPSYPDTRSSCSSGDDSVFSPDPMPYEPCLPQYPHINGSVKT
Method: as §1, §3, §2

FGFR3, sequence (P22607 23-806): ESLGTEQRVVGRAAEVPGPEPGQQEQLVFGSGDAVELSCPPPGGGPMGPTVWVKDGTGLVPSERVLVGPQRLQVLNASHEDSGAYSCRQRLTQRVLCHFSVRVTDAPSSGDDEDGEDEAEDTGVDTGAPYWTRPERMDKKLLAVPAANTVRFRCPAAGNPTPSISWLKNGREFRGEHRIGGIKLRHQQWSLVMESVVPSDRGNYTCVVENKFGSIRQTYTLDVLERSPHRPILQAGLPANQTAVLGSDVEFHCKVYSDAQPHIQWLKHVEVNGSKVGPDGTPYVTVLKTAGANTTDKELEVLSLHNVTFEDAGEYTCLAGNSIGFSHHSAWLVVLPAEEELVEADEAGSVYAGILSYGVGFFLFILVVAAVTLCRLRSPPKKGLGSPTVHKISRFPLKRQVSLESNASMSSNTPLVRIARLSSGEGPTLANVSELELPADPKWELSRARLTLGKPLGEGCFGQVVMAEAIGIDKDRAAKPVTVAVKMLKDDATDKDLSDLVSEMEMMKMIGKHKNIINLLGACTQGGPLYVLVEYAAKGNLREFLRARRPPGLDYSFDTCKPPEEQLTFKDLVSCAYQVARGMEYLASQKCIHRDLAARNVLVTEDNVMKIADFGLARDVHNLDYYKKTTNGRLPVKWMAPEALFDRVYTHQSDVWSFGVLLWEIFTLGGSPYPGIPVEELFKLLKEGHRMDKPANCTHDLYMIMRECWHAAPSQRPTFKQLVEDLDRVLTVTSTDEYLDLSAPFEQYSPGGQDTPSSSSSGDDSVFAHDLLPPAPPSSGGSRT

| IC50 [1] [nM] | IC50 [2] [nM] | IC50 [3] [nM] | Compound |
| --- | --- | --- | --- |
| < 100 | < 100 | < 100 | COc1cc(OC)cc(N2Cc3cnc4[nH]c(C(=O)N5CCC(O)C5)cc4c3N(C)C2=O)c1 (stereo not drawn) [Example 21, 3-(3,5-Dimethoxyphenyl)-8-[(3-hydroxypyrrolidin-1-yl)carbonyl]-1-methyl-1,3,4,7-tetrahydro-2H-pyrrolo[3′,2′:5,6]pyrido[4,3-d]pyrimidin-2-one] |
| < 100 | < 100 | < 100 | COc1cc(OC)cc(N2Cc3cnc4[nH]c(C(=O)N5CCN(C)CC5)cc4c3N(C)C2=O)c1 [Example 22, 3-(3,5-Dimethoxyphenyl)-1-methyl-8-[(4-methylpiperazin-1-yl)carbonyl]-1,3,4,7-tetrahydro-2H-pyrrolo[3′,2′:5,6]pyrido[4,3-d]pyrimidin-2-one] |
| < 100 | < 100 | < 100 | CNC(=O)c1cc2c3c(cnc2[nH]1)CN(c1cc(OC)cc(OC)c1Cl)C(=O)N3C [Example 23, 3-(2-Chloro-3,5-dimethoxyphenyl)-N,1-dimethyl-2-oxo-2,3,4,7-tetrahydro-1H-pyrrolo[3′,2′:5,6]pyrido[4,3-d]pyrimidine-8-carboxamide] |
| < 100 | < 100 | < 100 | COc1cc(OC)c(Cl)c(N2Cc3cnc4[nH]c(C(=O)N(C)C)cc4c3N(C)C2=O)c1 [Example 24, 3-(2-Chloro-3,5-dimethoxyphenyl)-N,N,1-trimethyl-2-oxo-2,3,4,7-tetrahydro-1H-pyrrolo[3′,2′:5,6]pyrido[4,3-d]pyrimidine-8-carboxamide] |
| < 100 | < 100 | < 100 | COc1cc(OC)c(Cl)c(N2Cc3cnc4[nH]c(C(=O)N5CC(O)C5)cc4c3N(C)C2=O)c1 [Example 25, 3-(2-Chloro-3,5-dimethoxyphenyl)-8-[(3-hydroxyazetidin-1-yl)carbonyl]-1-methyl-1,3,4,7-tetrahydro-2H-pyrrolo[3′,2′:5,6]pyrido[4,3-d]pyrimidin-2-one] |
| < 100 | < 100 | < 100 | COc1cc(OC)c(Cl)c(N2Cc3cnc4[nH]c(C(=O)N5CCN(C)CC5)cc4c3N(C)C2=O)c1 [Example 26, 3-(2-Chloro-3,5-dimethoxyphenyl)-1-methyl-8-[(4-methylpiperazin-1-yl)carbonyl]-1,3,4,7-tetrahydro-2H-pyrrolo[3′,2′:5,6]pyrido[4,3-d]pyrimidin-2-one] |
| < 100 | < 100 | < 100 | COc1cc(OC)c(F)c(N2Cc3cnc4[nH]c(C(=O)NC5CC5)cc4c3N(C)C2=O)c1 [Example 27, N-Cyclopropyl-3-(2-fluoro-3,5-dimethoxyphenyl)-1-methyl-2-oxo-2,3,4,7-tetrahydro-1H-pyrrolo[3′,2′:5,6]pyrido[4,3-d]pyrimidine-8-carboxamide] |
| < 100 | < 100 | < 100 | COc1cc(OC)c(F)c(N2Cc3cnc4[nH]c(C(=O)N5CC(O)C5)cc4c3N(C)C2=O)c1 [Example 28, 3-(2-Fluoro-3,5-dimethoxyphenyl)-8-[(3-hydroxyazetidin-1-yl)carbonyl]-1-methyl-1,3,4,7-tetrahydro-2H-pyrrolo[3′,2′:5,6]pyrido[4,3-d]pyrimidin-2-one] |
| < 100 | < 100 | < 100 | COc1cc(OC)c(F)c(N2Cc3cnc4[nH]c(C(=O)N5CCC(C#N)C5)cc4c3N(C)C2=O)c1 (stereo not drawn) [Example 29, 1-{[3-(2-Fluoro-3,5-dimethoxyphenyl)-1-methyl-2-oxo-2,3,4,7-tetrahydro-1H-pyrrolo[3′,2′:5,6]pyrido[4,3-d]pyrimidin-8-yl]carbonyl}pyrrolidine-3-carbonitrile] |
| < 100 | < 100 | < 100 | COc1cc(OC)c(F)c(N2Cc3cnc4[nH]c(C(=O)N5CCN(C)CC5)cc4c3N(C)C2=O)c1 [Example 30, 3-(2-Fluoro-3,5-dimethoxyphenyl)-1-methyl-8-[(4-methylpiperazin-1-yl)carbonyl]-1,3,4,7-tetrahydro-2H-pyrrolo[3′,2′:5,6]pyrido[4,3-d]pyrimidin-2-one] |
| < 100 | < 100 | < 100 | COc1cc(OC)c(F)c(N2Cc3cnc4[nH]c(C(=O)N5CCCC(O)C5)cc4c3N(C)C2=O)c1 (stereo not drawn) [Example 31, 3-(2-Fluoro-3,5-dimethoxyphenyl)-8-[(3-hydroxypiperidin-1-yl)carbonyl]-1-methyl-1,3,4,7-tetrahydro-2H-pyrrolo[3′,2′:5,6]pyrido[4,3-d]pyrimidin-2-one] |
| < 100 | < 100 | < 100 | COc1cc(OC)c(F)c(N2Cc3cnc4[nH]c(C(=O)N(C)C)cc4c3N(C)C2=O)c1 [Example 34, 3-(2-Fluoro-3,5-dimethoxyphenyl)-N,N,1-trimethyl-2-oxo-2,3,4,7-tetrahydro-1H-pyrrolo[3′,2′:5,6]pyrido[4,3-d]pyrimidine-8-carboxamide] |
| < 100 | < 100 | < 100 | COc1cc(OC)c(F)c(N2Cc3cnc4[nH]c(C(=O)N(C)C)cc4c3N(C)C2=O)c1F [Example 35, 3-(2,6-Difluoro-3,5-dimethoxyphenyl)-N,N,1-trimethyl-2-oxo-2,3,4,7-tetrahydro-1H-pyrrolo[3′,2′:5,6]pyrido[4,3-d]pyrimidine-8-carboxamide] |
| < 100 | < 100 | < 100 | COc1cc(OC)c(F)c(N2Cc3cnc4c(c3N(C)C2=O)CC(=O)N4)c1F [Example 37, 3-(2,6-Difluoro-3,5-dimethoxyphenyl)-1-methyl-3,4,7,9-tetrahydro-1H-pyrrolo[3′,2′:5,6]pyrido[4,3-d]pyrimidine-2,8-dione] |
| < 100 | < 100 | < 100 | COc1cc(OC)c(F)c(N2Cc3cnc4ccsc4c3N(C)C2=O)c1F [Example 38, 3-(2,6-Difluoro-3,5-dimethoxyphenyl)-1-methyl-3,4-dihydrothieno[2′,3′:5,6]pyrido[4,3-d]pyrimidin-2(1H)-one] |
| < 100 | < 100 | < 100 | COc1cc(OC)c(F)c(N2Cc3cnc4[nH]c(C5CCOCC5)cc4c3N(C)C2=O)c1F [Example 39, 3-(2,6-Difluoro-3,5-dimethoxyphenyl)-1-methyl-8-(tetrahydro-2H-pyran-4-yl)-1,3,4,7-tetrahydro-2H-pyrrolo[3′,2′:5,6]pyrido[4,3-d]pyrimidin-2-one] |
| < 100 | < 100 | < 100 | COc1cc(OC)c(F)c(N2Cc3cnc4[nH]c(C(=O)N5CCN(C)CC5)cc4c3N(C)C2=O)c1F [Example 40, 3-(2,6-Difluoro-3,5-dimethoxyphenyl)-1-methyl-8-[(4-methylpiperazin-1-yl)carbonyl]-1,3,4,7-tetrahydro-2H-pyrrolo[3′,2′:5,6]pyrido[4,3-d]pyrimidin-2-one] |
| < 100 | < 100 | < 100 | COc1cc(OC)c(F)c(N2Cc3cnc4[nH]c(C(=O)N5CCOCC5)cc4c3N(C)C2=O)c1F [Example 41, 3-(2,6-Difluoro-3,5-dimethoxyphenyl)-1-methyl-8-(morpholin-4-ylcarbonyl)-1,3,4,7-tetrahydro-2H-pyrrolo[3′,2′:5,6]pyrido[4,3-d]pyrimidin-2-one] |
| < 100 | < 100 | < 100 | COc1cc(OC)c(F)c(N2Cc3cnc4[nH]c(C(=O)N5CCC(F)(F)CC5)cc4c3N(C)C2=O)c1F [Example 42, 3-(2,6-Difluoro-3,5-dimethoxyphenyl)-8-[(4,4-difluoropiperidin-1-yl)carbonyl]-1-methyl-1,3,4,7-tetrahydro-2H-pyrrolo[3′,2′:5,6]pyrido[4,3-d]pyrimidin-2-one] |
| < 100 | < 100 | < 100 | COc1cc(OC)c(F)c(N2Cc3cnc4[nH]cc(-c5cnn(C)c5)c4c3N(C)C2=O)c1F [Example 43, 3-(2,6-Difluoro-3,5-dimethoxyphenyl)-1-methyl-9-(1-methyl-1H-pyrazol-4-yl)-1,3,4,7-tetrahydro-2H-pyrrolo[3′,2′:5,6]pyrido[4,3-d]pyrimidin-2-one] |
| < 100 | < 100 | < 100 | COc1cc(OC)c(F)c(N2Cc3cnc4[nH]ccc4c3N(CCO)C2=O)c1F [Example 44, 3-(2,6-Difluoro-3,5-dimethoxyphenyl)-1-(2-hydroxyethyl)-1,3,4,7-tetrahydro-2H-pyrrolo[3′,2′:5,6]pyrido[4,3-d]pyrimidin-2-one] |
| < 100 | < 100 | < 100 | COc1cc(OC)c(F)c(N2Cc3cnc4[nH]ccc4c3N(C3CC3)C2=O)c1F [Example 45, 1-Cyclopropyl-3-(2,6-difluoro-3,5-dimethoxyphenyl)-1,3,4,7-tetrahydro-2H-pyrrolo[3′,2′:5,6]pyrido[4,3-d]pyrimidin-2-one] |
| < 100 | < 100 | < 100 | COc1cc(OC)c(F)c(N2Cc3cnc4[nH]ccc4c3N(C3CCOCC3)C2=O)c1F [Example 46, 3-(2,6-Difluoro-3,5-dimethoxyphenyl)-1-(tetrahydro-2H-pyran-4-yl)-1,3,4,7-tetrahydro-2H-pyrrolo[3′,2′:5,6]pyrido[4,3-d]pyrimidin-2-one] |

Source: US9611267B2, “Substituted tricyclic compounds as FGFR inhibitors” (Incyte Corporation, priority 2012, dated 2017)
